Where “and” joins values, the source holds several entries; their conditions need not be identical. Equal values may be shown once. Read-outs that look alike come from different tables or passages of the source.
Tests used:
[1] = system: Porcine respiratory reproductive syndrome virus (LMY); settings: for IC50: MARC-145 cells, MOI 0.01 ffu/cell, drug added after 18 hours, additional 18 hours; for SI (CC50/IC50): Porcine respiratory reproductive syndrome virus (LMY)
[2] = system: Bovine coronavirus (KWD20); settings: for SI (CC50/IC50): Bovine coronavirus (KWD20); for IC50: HRT-18G cells, MOI 0.01 ffu/cell, drug added after 18 hours, additional 18 hours
[3] = system: Influenza A virus (H1N1) (PR8)
[4] = system: SARS-COV-2, IAV, BCOV, PEDV, RVA, PRRSV, and PSaV; assay: Viral genome copy (real-time PCR) and progeny virus production in cells infected with seven RNA viruses; type: cell-based; settings: 1, 10, and 20 μM; dose-dependent, all seven viruses
Description: Subsequently, each well was washed three times with phosphate-buffered saline, followed by the addition of the respective viral culture media.
Subsequently, each plate underwent three cycles of freezing and thawing to detach the cells from each well for subsequent experiments.
To analyze the inhibitory effects of atglistatin and CAY10499 on the genome copies of each virus, RNA was extracted using the RNeasy mini kit (Qiagen). The extracted RNA was then used to synthesize cDNA using the TOPscript™ cDNA Synthesis kit (Enzynomics), which includes random hexamer and poly(rA)-oligo(dT). Afterward, real-time PCR was performed on the synthesized cDNA in the TOPreal™ qPCR 2× PreMix (Enzynomics) solution in the presence of specific primers for SARS-COV-2 nucleocapsid (N), influenza A virus PB1, bovine coronavirus spike (S), porcine epidemic diarrhea coronavirus nucleocapsid (N), bovine species A rotavirus VP6, porcine reproductive and respiratory syndrome virus matrix (M), and porcine sapovirus VPg, using the LineGene 9600 Plus Real-time PCR detection system (Bioer, Hangzhou, China).
To analyze the inhibitory effects of atglistatin and CAY10499 on the production of progenies of the viruses, the supernatant obtained after three cycles of freezing and thawing was serially ten-fold diluted. […] After adsorption, each well was washed twice with phosphate-buffered saline (pH 7.4), followed by the addition of the respective culture media.
Then, after removal of the supernatants, the cells were fixed with 4% paraformaldehyde for 15 minutes and each well was washed thrice with phosphate-buffered saline and treated with 0.2% Triton X-100 at 20° C. for 10 minutes.
After three washes with phosphate-buffered saline, the wells were treated with 100- to 200-fold diluted primary antibodies to the spike protein of SARS-COV-2, the nucleoprotein protein of influenza A virus, the spike protein of bovine coronavirus, the nucleocapsid protein of porcine epidemic diarrhea coronavirus, the VP6 protein of bovine species A rotavirus, the matrix protein of porcine reproductive and respiratory syndrome virus, and the VPg protein of porcine sapovirus, respectively, and applied to a refrigerator at 4° C. for 12 hours.
Subsequently, the supernatant was removed, and each well was washed thrice with phosphate-buffered saline, followed by incubation with a 100- to 200-fold dilution of a secondary antibody conjugated with Alexa Fluor 488 or fluorescein isothiocyanate at room temperature for 2 hours.
Each virus was allowed to adsorb onto the cells which were then cultured in a freshly changed medium containing DABPU-EM or DABPU-DE. Thereafter, the cells were detached from the wells for subsequent experiments.

[5] = system: influenza A virus PR8 strain; assay: Influenza A virus-infected mice treated with lipase inhibitor; type: in vivo, C57BL/6J mice; settings: for free fatty acids and glycerol concentrations in lung tissues / progeny virus numbers in lung tissues / virus gene numbers in lung tissues: 5 mg/kg/day for 4 days, sixth day post-infection; for lung lesions, including interstitial pneumonia, and number of virus-positive cells / number of lipid droplets in bronchiolar epithelial cells / viral antigen in the bronchiolar epithelial cells: 5 mg/kg/day, vs untreated virus-inoculated group; for survival rate: 15 days observation; for survival rate, weight loss, and clinical symptoms: 0.01 to 10 mg/kg/day, dose-dependent
Procedure: For use in verifying the antiviral effect of lipase inhibition in animals infected with influenza A virus, 150 mg/ml of atglistatin and 150 mg/ml of CAY10499 were dissolved in DMSO. To evaluate the antiviral effect depending on the concentration, the drugs were prepared at concentrations of 1.000, 0.500, 0.100, 0.010, and 0.001 mg/ml. […] The drugs were completely dissolved by vortexing.
For evaluating the antiviral efficacy of CAY10499, mouse groups were prepared in the same manner with the exception of using CAY10499 instead of atglistatin.
Influenza A virus inoculation was carried out on anesthetized mice via an intranasal route at 1,000 PFU per mouse, following the same procedure as above. In cases where the virus was not injected, only phosphate-buffered saline was administered. Observations were made for 15 days, during which survival rates, body weight, and clinical symptoms were monitored and recorded daily. […] Drug treatment began two days after the inoculation of influenza A virus.
The survival rate, which was 100% with a 0% mortality rate on day 0 of the infection, was measured daily over 15 days, and compared with the survival rate of the virus-injected and untreated group. Statistical significance was analyzed using the Log Rank Test, with a p value of 0.05 or […] considered significant.
Each group consisted of four seven-week-old female wild-type C57BL/6J mice, acclimatized for one week, and used in the experiment at eight weeks of age.
Mice were inoculated with influenza A virus PR8 strain in the same manner as described above, and drug treatment was conducted for 4 days, starting from the second day post-infection. On the sixth day post-infection, the mice were euthanized for autopsy.
These tissues were assayed for free fatty acid levels.
To evaluate lipid droplets and influenza A virus antigen in the lung tissues, the fixed tissues were prepared into 3-μm-thick frozen sections. […] After washing, the sections were mounted with Slow-Fade Gold antifade reagent for nucleus staining.
The sections were then finely cut at 3 μm thickness, deparaffinized in xylene, and rehydrated through graded alcohols and water. […] Histological examination was then performed using an optical microscope.
Immunohistochemistry was performed for influenza A virus antigens in the lung tissue.

[6] = system: SARS-CoV-2 (KCDC03); assay: Half-maximal viral inhibitory concentration (IC50), immunofluorescence of virus-positive cells; settings: for SI (CC50/IC50): SARS-CoV-2 (KCDC03); for IC50: Vero E6 cells, MOI 0.01 ffu/cell, drug added after 18 hours, additional 18 hours
[7] = system: Porcine sapovirus (Cowden); settings: for IC50: LLC-PK cells, MOI 0.01 ffu/cell, drug added after 18 hours, additional 18 hours; for SI (CC50/IC50): Porcine sapovirus (Cowden)
[8] = system: Porcine epidemic diarrhea coronavirus (QIAP1401); settings: for IC50: Vero E6 cells, MOI 0.01 ffu/cell, drug added after 18 hours, additional 18 hours
[9] = system: Species A Rotavirus (NCDV); settings: for IC50: MA104 cells, MOI 0.01 ffu/cell, drug added after 12 hours, additional 12 hours; for SI (CC50/IC50): Species A Rotavirus (NCDV)
[10] = system: Porcine epidemic diarrhea coronavirus (QIAP1401); assay: organism not typed; settings: Vero C1008, 18 h
[11] = system: SARS-COV-2 strain KCDC03, KDCA51463, or KDCA55905; assay: Proliferation of SARS-CoV-2 in various cultured cells; type: cell-based; settings: Vero E6, Caco-2, Calu-3 cells (FIGS. 21a to 21f); vs solvent (vehicle)
[12] = system: influenza A virus PR8 strain; assay: Proliferation of influenza A virus in MRC-5, NCI-H293, WI-38, and Calu-3 cells; type: cell-based; settings: MRC-5, NCI-H293, WI-38, Calu-3 cells; 1, 10, 20 μM; vs solvent (vehicle)
[13] = 10 mg kg^−1 day^−1 intraperitoneally for four days from day 2 post infection, control 100% mortality
[14] = 5 mg kg^−1 day^−1 intraperitoneally for four days from day 2 post infection
[15] = Porcine epidemic diarrhea coronavirus (QIAP1401)

Row | Compound | IC50 [1] [µM] | SI (CC50/IC50) [1] | SI (CC50/IC50) [2] | IC50 [2] [µM] | copies of genomes of each virus [4] | production of progenies of each virus [4] | free fatty acids and glycerol concentrations in lung tissues [5] | progeny virus numbers in lung tissues [5] | virus gene numbers in lung tissues [5] | lung lesions, including interstitial pneumonia, and number of virus-positive cells [5] | number of lipid droplets in bronchiolar epithelial cells [5] | viral antigen in the bronchiolar epithelial cells [5] | survival rate [5, 13] | survival rate, weight loss, and clinical symptoms [5] | SI (CC50/IC50) [6] | IC50 [6] [µM] | IC50 [7] [µM] | SI (CC50/IC50) [7] | IC50 [8] [µM] | SI (CC50/IC50) [9] | other results
1 | COc1nn(-c2ccc(NC(=O)OCc3ccccc3)c(C)c2)c(=O)o1 [CAY10499] | 4.21 | 21 | 11 | 7.3 | reduced | reduced | significant decrease | significant decrease | significant decrease | alleviation and reduction | did not decrease significantly | significant reduction | 50% | improvement | 62 | 1.54 | 11.8 | 8 | 3.19 | 4 | IC50 [3]: 4.13 µM; SI (CC50/IC50) [3]: 27; SI (CC50/IC50) [8]: 30; IC50 [9]: 20.9 µM
2 | CN(C)C(=O)Nc1cccc(-c2ccc(N(C)C)cc2)c1 [Atglistatin, 3-(4′-(dimethylamino)-(1,1′-biphenyl)-3-yl)-1,1-dimethylurea] |  | 84 | 152 |  | reduced | reduced | significant decrease | significant decrease | significant decrease | alleviation and reduction | did not decrease significantly | significant reduction | 60% and 62.5% | improvement | 154 | 1.47 |  | 72 |  | 32 | IC50 [10]: 1.96 µM; SI (CC50/IC50) ([3]; Influenza A virus (H1N1) (PR8)): 251; survival rate [5, 14]: 62.5%; SI (CC50/IC50) [8, 15]: 116; number of viral genome copies [11]: significantly reduced; progeny virus number [12]: significantly reduced; viral genome copy number [12]: significantly reduced
3 | CCN(CC)C(=O)Nc1cccc(-c2ccc(N(C)C)cc2)c1 [DABPU-DE] | 2.29 | 95 | 158 | 1.12 | reduced | reduced | significantly reduced | significantly reduced | significantly reduced | alleviation and reduction | no significant decrease | significantly decreasing | 68.8% | improvement | 185 | 1.2 | 2.77 | 81 | 1.62 | 36 | SI (CC50/IC50) ([3]; Influenza A virus (H1N1) (PR8)): 207; IC50 ([3]; […], drug added after 12 hours, additional 12 hours): 1.03 µM; survival rate [5, 14]: 68.8%; SI (CC50/IC50) [8, 15]: 128; number of viral genome copies [11]: significantly reduced; progeny virus number [12]: significantly reduced; viral genome copy number [12]: significantly reduced; IC50 [9]: 5.22 µM

Source: US20240285557A1, “PHARMACEUTICAL COMPOSITION COMPRISING LIPASE INHIBITOR FOR TREATMENT OR TREATMENT OF RNA VIRAL INFECTIONS” (priority 2021, published 2024)
